According to ChEMBL document CHEMBL1201862, “PubChem BioAssay data set” (2004):
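Exposure lasted 48 hours, with cells grown in 96-well plates and compounds tested at five concentrations. GI50 marks 50% less growth.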 Calls of active or inactive are those of the source. Rule as the data show it: active = GI50 up to about 1.1 µM and inactive = higher.

Experiments:
Assay in all cases: DTP human tumour cell line panel, 48 h
OVCAR-5 = tested on: OVCAR-5
HCC 2998 = tested on: HCC 2998
K562 = tested on: K562
HCT-116 = tested on: HCT-116
SN12C = tested on: SN12C
HT-29 = tested on: HT-29
NCI-H23 = tested on: NCI-H23
RPMI-8226 = tested on: RPMI-8226
CCRF-CEM = tested on: CCRF-CEM
A549 = tested on: A549
SW-620 = tested on: SW-620
COLO 205 = tested on: COLO 205
UO-31 = tested on: UO-31
SF-268 = tested on: SF-268
EKVX = tested on: EKVX
NCI-H460 = tested on: NCI-H460
RXF 393 = tested on: RXF 393
UACC-62 = tested on: UACC-62
MOLT-4 = tested on: MOLT-4
SK-OV-3 = tested on: SK-OV-3

Row | Structure (SMILES) | GI50 (OVCAR-5) | GI50 (HCC 2998) | GI50 (K562) | GI50 (HCT-116) | GI50 (SN12C) | GI50 (HT-29) | GI50 (NCI-H23) | GI50 (RPMI-8226) | GI50 (CCRF-CEM) | GI50 (A549) | GI50 (SW-620) | GI50 (COLO 205) | GI50 (UO-31) | GI50 (SF-268) | GI50 (EKVX) | GI50 (NCI-H460) | GI50 (RXF 393) | GI50 (UACC-62) | GI50 (MOLT-4) | GI50 (SK-OV-3)
1 | CN(CCO)CCC1COc2ccccc2O1 (stereo not given) | > 10 µM (inactive) | > 10 µM (inactive) | > 10 µM (inactive) | > 10 µM (inactive) | > 10 µM (inactive) | > 10 µM (inactive) | > 10 µM (inactive) | > 10 µM (inactive) | > 10 µM (inactive) | > 10 µM (inactive) | > 10 µM (inactive) | > 10 µM (inactive) | > 10 µM (inactive) | > 10 µM (inactive) | > 10 µM (inactive) | > 10 µM (inactive) | 7.98 µM (inactive) | > 10 µM (inactive) | > 10 µM (inactive) | > 10 µM (inactive)
2 | O=C(Nc1ccc(C2=NCCN2)cc1)c1cncc(C(=O)Nc2ccc(C3=NCCN3)cc2)c1 | > 100 µM (inactive) | > 100 µM (inactive) | > 100 µM (inactive) | > 100 µM (inactive) | > 100 µM (inactive) | > 100 µM (inactive) | > 100 µM (inactive) | > 100 µM (inactive) | > 100 µM (inactive) | > 100 µM (inactive) | > 100 µM (inactive) | > 100 µM (inactive) | > 100 µM (inactive) | > 31.6 µM (inactive) | > 100 µM (inactive) | > 100 µM (inactive) | > 100 µM (inactive) | > 100 µM (inactive) | > 100 µM (inactive) | > 100 µM (inactive)
3 | N#CSCC1COc2ccccc2O1 (stereo not given) | > 10 µM (inactive) | > 10 µM (inactive) | 1.77 µM (inactive) | 5.92 µM (inactive) | 7.57 µM (inactive) | > 10 µM (inactive) | > 10 µM (inactive) | 4.98 µM (inactive) | 0.628 µM (active) | > 10 µM (inactive) | 4.97 µM (inactive) | > 10 µM (inactive) | > 10 µM (inactive) | > 10 µM (inactive) | > 10 µM (inactive) | > 10 µM (inactive) | > 10 µM (inactive) | > 10 µM (inactive) | 3.3 µM (inactive) | > 10 µM (inactive)
4 | CCC1CN2CCC1CC2 (stereo not given) | > 100 µM (inactive) | > 100 µM (inactive) | > 100 µM (inactive) | > 100 µM (inactive) | > 100 µM (inactive) | > 100 µM (inactive) | > 100 µM (inactive) | > 100 µM (inactive) | > 100 µM (inactive) | > 100 µM (inactive) | > 100 µM (inactive) | > 100 µM (inactive) | > 100 µM (inactive) | > 100 µM (inactive) | > 100 µM (inactive) | > 100 µM (inactive) | > 100 µM (inactive) | > 100 µM (inactive) | > 100 µM (inactive) | > 100 µM (inactive)
5 | Brc1ccc(C2CC(c3cccc4ccccc34)=Nc3ccccc3S2)cc1 (stereo not given) | > 100 µM (inactive) | 30.4 µM (inactive) | 26.2 µM (inactive) | 31.3 µM (inactive) | > 100 µM (inactive) | 46.7 µM (inactive) | 86.5 µM (inactive) | 10.9 µM (inactive) | 29 µM (inactive) | > 100 µM (inactive) | 16.7 µM (inactive) | > 100 µM (inactive) | 54.3 µM (inactive) | > 100 µM (inactive) | 37.1 µM (inactive) | > 100 µM (inactive) | > 100 µM (inactive) | 71.9 µM (inactive) | 23.5 µM (inactive) | > 100 µM (inactive)
6 | COC(=O)[C@@H]1c2cc3c(c(O)c2[C@@H](OC)C[C@@]1(C)O)C(=O)c1c(O)cc2c(c1C3=O)OC1O[C@@]2(C)[C@H](O)[C@@H](N(C)C)[C@@H]1O | 0.508 µM (active) | 0.251 µM (active) | 0.322 µM (active) | 0.261 µM (active) | 0.254 µM (active) | 0.355 µM (active) | 0.428 µM (active) | 0.192 µM (active) | 0.273 µM (active) | 0.435 µM (active) | 0.193 µM (active) | 0.257 µM (active) | 1.14 µM (inactive) | 0.528 µM (active) | 0.345 µM (active) | 0.129 µM (active) | 0.381 µM (active) | 0.223 µM (active) | 0.143 µM (active) | 0.522 µM (active)
7 | COc1cc(C(C)c2cc3c(cc2OCCO)OCO3)cc(OC)c1OC (stereo not given) | > 100 µM (inactive) | 2.04 µM (inactive) | 0.486 µM (active) | 1.38 µM (inactive) | 5.82 µM (inactive) | 0.436 µM (active) | 1.91 µM (inactive) | 4.59 µM (inactive) | 1.82 µM (inactive) | 2.32 µM (inactive) | 0.746 µM (active) | 1.34 µM (inactive) | 5.82 µM (inactive) | 3.9 µM (inactive) | 3.79 µM (inactive) | 2.2 µM (inactive) | 0.63 µM (active) | 0.601 µM (active) | 0.935 µM (active) | 2.19 µM (inactive)
8 | Cn1c2ccccc2c(=O)c2c(O)cc3c(c21)C=CC(C)(C)O3 [NORACRONYCINE] | > 25 µM (inactive) | > 25 µM (inactive) | > 25 µM (inactive) | > 25 µM (inactive) | > 25 µM (inactive) | > 25 µM (inactive) | > 25 µM (inactive) | > 25 µM (inactive) | > 25 µM (inactive) | > 25 µM (inactive) | 12.2 µM (inactive) | > 25 µM (inactive) | > 25 µM (inactive) | > 25 µM (inactive) | > 21.1 µM (inactive) | > 25 µM (inactive) | > 10.2 µM (inactive) | > 25 µM (inactive) | 6.28 µM (inactive) | > 25 µM (inactive)
9 | O=C(O)CCCCCCCCC(=O)O [SEBACIC ACID] | > 500 µM (inactive) | 50 µM (inactive) | > 500 µM (inactive) | > 500 µM (inactive) | > 321 µM (inactive) | > 23.2 µM (inactive) | 79.3 µM (inactive) | > 500 µM (inactive) | 300 µM (inactive) | 108 µM (inactive) | > 500 µM (inactive) | > 79.3 µM (inactive) | > 79.3 µM (inactive) | > 500 µM (inactive) | 50 µM (inactive) | 108 µM (inactive) | 50 µM (inactive) | > 79.3 µM (inactive) | > 500 µM (inactive) | 50 µM (inactive)
